In US20250368623A1, “PYRIDAZINONE-DERIVED COMPOUNDS FOR THE MODULATION OF MYC AND FOR MEDICAL USES” (GENETIC INTELLIGENCE, INC, priority 2022, published 2025):

Key:
HepG2 = assay: CCK-8 cell viability assay, HepG2; format: cell-based; settings: Homo sapiens; CCK-8, HepG2, 2-day or 3-day incubation, cytotoxic effect
Experimental: The effect of test compounds on cell viability is determined using the CCK-8 assay kit (Dojindo CK04-1000) according to the following protocol. The human cancer cell lines (e.g., A549, HepG2, JeKo-1, MDA-MB-231, etc.) and non-cancer human cell lines (e.g., HEK-293, HaCaT, etc.), are seeded at 20,000 cells per well in a 96-well plate. After 1 day, the cells are treated with test compounds at various final concentrations (e.g., 10 nM, 31.6 nM, 100 nM, 316 nM, 1 μM, 3.16 μM, 10 μM, 20 μM, etc.). After a 2-day or 3-day incubation period, 10 μL of CCK-8 solution, which contains the WST-8 dye, is added to each well according to the kit manufacturer's protocol. After incubation for 1-4 hours, the absorbance at 450 nm is measured using a microplate reader. The absorbance at 450 nm measures the amount of WST-8 that is reduced to WST-8 formazan by cellular dehydrogenases, which is directly proportional to the number of living cells. The cytotoxic effect of test compounds at different concentrations is calculated by subtracting from 1 the ratio of absorbance of the compound-treated sample at 450 nm to that of the no-compound, solvent only (DMSO)-treated sample. […] The IC50 values for the cytotoxic effect of each test compound in A549, HepG2, JeKo-1, and/or MDA-MB-231 cells are determined by plotting a dose-response curve to calculate the concentration of test compound that produces half of the maximum cytotoxic effect.

MYC RNA = assay: RT-qPCR of MYC RNA in human cancer cell lines; format: cell-based; settings: 24 h, about 1 μM, 1-day incubation, e.g., A549, HepG2, beta-actin normalized, vs DMSO, read-out: % reduction of MYC RNA
Experimental: The level of reduction of MYC RNA following treatment with test compounds is assessed using RT-qPCR according to the following protocol. The human cancer cell lines (e.g., A549, HepG2) are seeded at 20,000 cells per well in a 96-well plate. After 1 day, the cells are treated with test compounds at a final concentration of about 1 μM. After a 1-day incubation period, the supernatant is removed from the wells and lysis solution from the Cells-to-CT 1-Step Power SYBR Green Kit (Invitrogen A25599) is added to create cell lysates, according to the kit manufacturer's protocol. The kit manufacturer's protocol is then followed to perform RT-qPCR for each sample using a pair of MYC-specific primers (e.g., SEQ ID NO: 4 and SEQ ID NO: 5) to detect MYC RNA, as well as a pair of beta-actin-specific primers (e.g., SEQ ID NO: 6 and SEQ ID NO: 7) to detect beta-actin RNA, which serves as a loading control. The relative expression levels of MYC and beta-actin RNAs are calculated using a standard curve generated from a dilution series of untreated cell lysates. The normalized level of MYC RNA following treatment with a test compound is calculated by dividing the relative expression level of MYC in the sample by the relative expression level of beta actin in the same sample. The value so obtained is presented as a percentage of that of the no-compound, solvent only (DMSO)-treated sample. A lower percentage of MYC RNA in a sample with respect to the DMSO-treated sample indicates greater percentage reduction in MYC RNA levels due to the test compound, and vice versa.

Cc1nc(C)c(-c2ccc(=O)n(CC3CCN(c4ncnc5ncccc45)CC3)n2)s1 [6-(2,4-dimethylthiazol-5-yl)-2-((1-(pyrido[2,3-d]pyrimidin-4-yl)piperidin-4-yl)methyl)pyridazin-3(2H)-one] gave an IC50 (HepG2) of 300 nM and an inhibition at 1 µM (MYC RNA) of 45%.
